Test: Transdermal electrotransport goserelin delivery at two constant current densities (Example 4)
Type: in vivo, human
Method: This study was undertaken to evaluate the relationship between current density and drug flux in the transdermal electrotransport delivery of goserelin. The study involved the application of electrotransport devices, applying constant current, to 12 normal male volunteers for a duration of 8 hours.
The two electrotransport treatment regimens in this study differed only in applied current density levels. The electrotransport devices delivered goserelin through the skin from polyvinyl alcohol (PVOH)-based donor hydrogels having a skin-contact surface area of 4 cm^2. The gels contained an aqueous goserelin solution. The current density levels used in this study were 50 and 100 μA/cm^2. After an 8 hour treatment period, the electrotransport devices were removed. The skin site was then washed to remove any residual goserelin. All 12 volunteers received each treatment seven days apart.
For each treatment, seven blood samples were taken over a 24 hour period commencing with the application of current from the electrotransport devices. Serum goserelin concentrations from each patient were used to calculate mean drug flux and the mean total amount of drug delivered.

CC(C)C[C@H](NC(=O)[C@@H](COC(C)(C)C)NC(=O)[C@H](Cc1ccc(O)cc1)NC(=O)[C@H](CO)NC(=O)[C@H](Cc1c[nH]c2ccccc12)NC(=O)[C@H](Cc1cnc[nH]1)NC(=O)[C@@H]1CCC(=O)N1)C(=O)N[C@@H](CCCNC(=N)N)C(=O)N1CCC[C@H]1C(=O)NNC(N)=O [goserelin]
average transdermal goserelin flux (50 microA/cm^2 constant current, 4 cm^2, 8 h): 5.8 microgram per hour
average transdermal flux of goserelin (100 microA/cm^2 constant current, 4 cm^2, 8 h): 21.6 µg/h
increase in drug flux (current density rises from 50 to 100 μA/cm^2): almost four-fold increase
